Laboratory results taken from patent publication US8865724B2, “Preparation of 2-methyl-4-amino-5(substituted-1H-1,2,3-triazolyl)methylpyrimidine derivatives and microbicidal activity thereof” (Central China Normal University, priority 2011, dated 2014).
Where two headings read alike, the source gives them in different places.

Experiments:
gray mold of cucumber = assay: Spawn growth rate on agar plates (Embodiment 9); assay type: cell-based, Botrytis cinerea; conditions: 48 h; for inhibition of growth at 12.5 µg/g: Concentration 12.5 μg/g; for inhibition of growth at 25 µg/g: Concentration 25 μg/g; for inhibition of growth at 50 µg/g: Concentration 50 μg/g
wheat scab = assay: microbe, parasite or virus in culture; assay type: cell-based, Gibberella zeae; conditions: for inhibition of growth at 100 µg/g: 48 h, read-out: Wheat scab Average inhibition rate (%); for Wheat scab (inhibition): Table 7
early blight of tomato = assay: Spawn growth rate on agar plates (Embodiment 9); assay type: cell-based, Alternaria solania; conditions: for inhibition of growth at 100 µg/g: 48 h, testing concentration of 100 μg/g, Table 6; for Early blight of tomato (inhibition): Table 7
[1] = tested on: Rice Sheath Blight Disease (sheath and culm blight of rice); assay: Spawn growth rate on agar plates (Embodiment 9); assay type: cell-based, Rhizoctonia solani; conditions: 48 h; for inhibition of growth at 12.5 µg/g: Concentration 12.5 μg/g; for inhibition of growth at 25 µg/g: Concentration 25 μg/g; for inhibition of growth at 50 µg/g: Concentration 50 μg/g
[2] = tested on: Rice Sheath Blight Disease; assay: Microbicidal activity, spray then strip inoculation (Embodiment 8); conditions: for pest or weed control at 500 µg/g: Oryza sativa, read-out: Rice Sheath Blight Disease Average inhibition rate (%)
Description: (§1) (Pseudomonassyringaepv. tomato (Okabe) Young, Dye & Wilkie), Cucumber Angular Leaf Spot, Rice Sheath Blight Disease (Rhizoctonia solani), Corynespora Leaf Spot of Cucumber (Corynespora cassiicola), Downy Mildew of Cucumber (Cucumber Downy Mildew).
(§2) Testing agents and control agents were sprayed uniformly at A.M. of a sunshine day on the cucumber seminal leaves. After 2 hours, the leaves were inoculated with pathogenic microbes and cultured at humidity. […] Strip inoculation is used for Rice Sheath Blight Disease and phytophthora blight of pepper, in which the liquor was sprayed and after 2 hours, inoculation of strips was performed followed by culturing at humidity. After full occurrence of diseases in the control group, state of illness was examined according to grading standards, and a disease index and inhibition rate were calculated.

[3] = tested on: Cucumber Angular Leaf Spot; assay: Microbicidal activity on cucumber seedlings, spray then inoculation (Embodiment 8); conditions: Cucumis sativus, read-out: Cucumber Angular Leaf Spot Average inhibition rate (%)
Description: as §1, §2

[4] = tested on: Corynespora Leaf Spot of Cucumber; assay: Microbicidal activity on cucumber seedlings, spray then spore inoculation (Embodiment 8); conditions: for pest or weed control at 500 µg/g: Corynespora, in Cucumis sativus, read-out: Corynespora Leaf Spot of Cucumber Average inhibition rate (%)
Description: as §1, §2

Downy Mildew of Cucumber = assay: as above; conditions: for pest or weed control at 500 µg/g: Cucumis sativus, read-out: Downy Mildew of Cucumber Average inhibition rate (%)
Description: as §1, §2

[5] = Concentration 100 μg/g, Table 7, read-out: Gray mold of cucumber (inhibition)
[6] = testing concentration of 100 μg/g, Table 6, read-out: Gray mold of cucumber Average inhibition rate (%)
[7] = Concentration 100 μg/g, Table 7, read-out: Sheath and culm blight of rice (inhibition)
[8] = testing concentration of 100 μg/g, Table 6, read-out: Sheath and culm blight of rice Average inhibition rate (%)
[9] = testing concentration of 100 μg/g, Table 4, read-out: Gray mold of cucumber Average inhibition rate (%)
[10] = testing concentration of 500 μg/g

## Cc1ncc(Cn2nnc(COc3ccc(Cl)cc3)c2I)c(N)n1 [Compound 28]
Gray mold of cucumber; Table 8
  inhibition of growth at 12.5 µg/g: 85%
  inhibition of growth at 25 µg/g: 90%
  inhibition of growth at 50 µg/g: 98%
Gray mold of cucumber; Table 7
  inhibition of growth at 25 µg/g: 42%
  inhibition of growth at 50 µg/g: 86%
Gray mold of cucumber; [5]
  inhibition of growth at 100 µg/g: 90%
Gray mold of cucumber; [6]
  inhibition of growth at 100 µg/g: 100%
Wheat scab
  inhibition of growth at 100 µg/g: 67%
Wheat scab; Concentration 25 μg/g
  Wheat scab (inhibition): 43%
Wheat scab; Concentration 50 μg/g
  Wheat scab (inhibition): 64%
Wheat scab; Concentration 100 μg/g
  Wheat scab (inhibition): 69%
Early blight of tomato
  inhibition of growth at 100 µg/g: 69%
Early blight of tomato; Concentration 25 μg/g
  Early blight of tomato (inhibition): 0%
Early blight of tomato; Concentration 50 μg/g
  Early blight of tomato (inhibition): 28%
Early blight of tomato; Concentration 100 μg/g
  Early blight of tomato (inhibition): 68%
[1]; Table 8
  inhibition of growth at 12.5 µg/g: 87%
  inhibition of growth at 25 µg/g: 96%
  inhibition of growth at 50 µg/g: 98%
[1]; Table 7
  inhibition of growth at 25 µg/g: 91%
  inhibition of growth at 50 µg/g: 98%
[1]; [7]
  inhibition of growth at 100 µg/g: 99%
[1]; [8]
  inhibition of growth at 100 µg/g: 100%
other
  melting point: 183 to 185 °C

## COc1ccc(OCc2cn(Cc3cnc(C)nc3N)nn2)cc1 [Compound 13]
Gray mold of cucumber; [9]
  inhibition of growth at 100 µg/g: 49%
other
  melting point: 115 to 117 °C
[2]
  pest or weed control at 500 µg/g: 70%
[3]
  pest or weed control at 500 µg/g: 60%
[4]
  pest or weed control at 500 µg/g: 80%
Downy Mildew of Cucumber
  pest or weed control at 500 µg/g: 50%

## Cc1ncc(Cn2nnc(COc3ccc(Br)cc3)c2I)c(N)n1 [Compound 84]
Gray mold of cucumber; Table 8
  inhibition of growth at 12.5 µg/g: 66%
  inhibition of growth at 25 µg/g: 90%
  inhibition of growth at 50 µg/g: 94%
Gray mold of cucumber; [6]
  inhibition of growth at 100 µg/g: 93%
Wheat scab
  inhibition of growth at 100 µg/g: 62%
Early blight of tomato
  inhibition of growth at 100 µg/g: 58%
[1]; Table 8
  inhibition of growth at 12.5 µg/g: 73%
  inhibition of growth at 25 µg/g: 95%
  inhibition of growth at 50 µg/g: 97%
[1]; [8]
  inhibition of growth at 100 µg/g: 98%
other
  melting point: 138 to 140 °C

## COC(=O)Cc1ccc(OCc2cn(Cc3cnc(C)nc3N)nn2)cc1 [Compound 9]
Gray mold of cucumber; [9]
  inhibition of growth at 100 µg/g: 79%
other
  melting point: 142 to 143 °C
[2]
  pest or weed control at 500 µg/g: 90%
[3]
  pest or weed control at 500 µg/g: 60%
[4]
  pest or weed control at 500 µg/g: 60%
Downy Mildew of Cucumber
  pest or weed control at 500 µg/g: 80%

## Cc1ncc(Cn2nnc(COc3ccc(Cl)c(C)c3)c2I)c(N)n1 [Compound 25]
Gray mold of cucumber; Table 8
  inhibition of growth at 12.5 µg/g: 40%
  inhibition of growth at 25 µg/g: 50%
  inhibition of growth at 50 µg/g: 67%
Gray mold of cucumber; [6]
  inhibition of growth at 100 µg/g: 96%
Wheat scab
  inhibition of growth at 100 µg/g: 62%
Early blight of tomato
  inhibition of growth at 100 µg/g: 71%
[1]; Table 8
  inhibition of growth at 12.5 µg/g: 0%
  inhibition of growth at 25 µg/g: 25%
  inhibition of growth at 50 µg/g: 61%
[1]; [8]
  inhibition of growth at 100 µg/g: 97%
other
  melting point: 215 to 217 °C

## Cc1ncc(Cn2cc(COc3ccccc3[N+](=O)[O-])nn2)c(N)n1 [Compound 16]
Gray mold of cucumber; [9]
  inhibition of growth at 100 µg/g: 82%
Wheat scab
  inhibition of growth at 100 µg/g: 63%
other
  melting point: 184 to 185 °C
[2]
  pest or weed control at 500 µg/g: 70%
[3]
  pest or weed control at 500 µg/g: 70%
[4]
  pest or weed control at 500 µg/g: 80%
Downy Mildew of Cucumber
  pest or weed control at 500 µg/g: 50%

## jingangmycin [reference compound]
[2]; [10]
  Rice Sheath Blight Disease Average inhibition rate (%): 70%
[4]; [10]
  Corynespora Leaf Spot of Cucumber Average inhibition rate (%): 70%
Downy Mildew of Cucumber; [10]
  Downy Mildew of Cucumber Average inhibition rate (%): 70%

## Cc1ncc(Cn2cc(COc3ccccc3)nn2)c(N)n1 [Compound 12]
Gray mold of cucumber; [9]
  inhibition of growth at 100 µg/g: 53%
other
  melting point: 132 to 133 °C
[2]
  pest or weed control at 500 µg/g: 80%
[3]
  pest or weed control at 500 µg/g: 60%
[4]
  pest or weed control at 500 µg/g: 70%
Downy Mildew of Cucumber
  pest or weed control at 500 µg/g: 70%

## Cc1ncc(Cn2cc(COc3ccc(Cl)c(C)c3)nn2)c(N)n1 [Compound 11]
Gray mold of cucumber; [9]
  inhibition of growth at 100 µg/g: 67%
Wheat scab
  inhibition of growth at 100 µg/g: 54%
other
  melting point: 142 to 143 °C
[2]
  pest or weed control at 500 µg/g: 70%
[3]
  pest or weed control at 500 µg/g: 60%
[4]
  pest or weed control at 500 µg/g: 65%
Downy Mildew of Cucumber
  pest or weed control at 500 µg/g: 50%

## CCOC(=O)c1ccc(OCc2cn(Cc3cnc(C)nc3N)nn2)cc1 [Compound 3]
Gray mold of cucumber; [9]
  inhibition of growth at 100 µg/g: 70%
other
  melting point: 190 to 192 °C
[2]
  pest or weed control at 500 µg/g: 80%
[3]
  pest or weed control at 500 µg/g: 60%
[4]
  pest or weed control at 500 µg/g: 80%
Downy Mildew of Cucumber
  pest or weed control at 500 µg/g: 60%

## Cc1ncc(Cn2cc(COc3ccc(F)cc3Cl)nn2)c(N)n1 [Compound 6]
Gray mold of cucumber; [9]
  inhibition of growth at 100 µg/g: 63%
other
  melting point: 169 to 171 °C
[2]
  pest or weed control at 500 µg/g: 70%
[3]
  pest or weed control at 500 µg/g: 65%
[4]
  pest or weed control at 500 µg/g: 90%
Downy Mildew of Cucumber
  pest or weed control at 500 µg/g: 30%

## COc1ccc(C(=CC(=O)N2CCOCC2)c2ccc(Cl)cc2)cc1OC [Dimethomorph, reference compound]
[2]
  pest or weed control at 500 µg/g: 90%
[4]
  pest or weed control at 500 µg/g: 70%
Downy Mildew of Cucumber
  pest or weed control at 500 µg/g: 90%

## Cc1ncc(Cn2nnc(COc3ccccc3)c2I)c(N)n1 [Compound 23]
Gray mold of cucumber; [6]
  inhibition of growth at 100 µg/g: 88%
Wheat scab
  inhibition of growth at 100 µg/g: 59%
Early blight of tomato
  inhibition of growth at 100 µg/g: 57%
[1]; [8]
  inhibition of growth at 100 µg/g: 96%

## CC1COC(Cn2cncn2)(c2ccc(Oc3ccc(Cl)cc3)cc2Cl)O1 (centres unmarked) [Difenoconazole, reference compound]
Gray mold of cucumber; [5]
  inhibition of growth at 100 µg/g: 86%
Gray mold of cucumber; Concentration 100 μg/g, Table 8, read-out: Gray mold of cucumber (inhibition)
  inhibition of growth at 100 µg/g: 96%
Gray mold of cucumber; [9]
  inhibition of growth at 100 µg/g: 73%
Gray mold of cucumber; [6]
  inhibition of growth at 100 µg/g: 96%
Wheat scab
  inhibition of growth at 100 µg/g: 98%
Wheat scab; Concentration 100 μg/g
  Wheat scab (inhibition): 95%
Early blight of tomato
  inhibition of growth at 100 µg/g: 100%
[1]; [7]
  inhibition of growth at 100 µg/g: 91%
[1]; Concentration 100 μg/g, Table 8, read-out: Sheath and culm blight of rice (inhibition)
  inhibition of growth at 100 µg/g: 100%
[1]; [8]
  inhibition of growth at 100 µg/g: 100%

## Cc1ncc(Cn2cc(COc3ccc([N+](=O)[O-])cc3)nn2)c(N)n1 [Compound 1]
[2]
  pest or weed control at 500 µg/g: 90%
[3]
  pest or weed control at 500 µg/g: 60%
[4]
  pest or weed control at 500 µg/g: 50%
Downy Mildew of Cucumber
  pest or weed control at 500 µg/g: 75%

## COC(=O)NC(=S)Nc1ccccc1NC(=S)NC(=O)OC [Thiophanate-methyl, reference compound]
[2]
  pest or weed control at 500 µg/g: 85%
[4]
  pest or weed control at 500 µg/g: 80%
Downy Mildew of Cucumber
  pest or weed control at 500 µg/g: 20%

## Cc1ncc(Cn2cc(COc3ccc([N+](=O)[O-])cc3[N+](=O)[O-])nn2)c(N)n1 [Compound 8]
Gray mold of cucumber; [9]
  inhibition of growth at 100 µg/g: 54%
other
  melting point: 210 to 211 °C
[2]
  pest or weed control at 500 µg/g: 70%
[3]
  pest or weed control at 500 µg/g: 60%
[4]
  pest or weed control at 500 µg/g: 70%
Downy Mildew of Cucumber
  pest or weed control at 500 µg/g: 60%
